Reference: patent publication US11180504B2 (ORCHID PHARMA LTD., priority 2016, dated 2021)
Values after ≈ are worked out from the molar mass of the structure shown.

What was measured:
[1] = test system: carbapenemase producing K. pneumoniae; assay: MIC by broth micro-dilution (CLSI), carbapenemase producing K. pneumoniae; format: cell-based, Klebsiella pneumoniae; conditions: Klebsiella pneumoniae, ATCCBAA1705, KPC-2 K. pneumoniae ATCC BAA-1705; read-out: MIC
[2] = test system: methicillin-sensitive Staphylococcus aureus; assay: MIC by broth micro-dilution (CLSI), methicillin-sensitive S. aureus; format: cell-based; conditions: Staphylococcus aureus, ATCC 29213 / MSSA, MSSA S. aureus ATCC29213; read-out: MIC
[3] = test system: carbapenem sensitive Escherichia coli; assay: MIC by broth micro-dilution (CLSI), carbapenem sensitive E. coli; format: cell-based; conditions: Escherichia coli, ATCC25922, ESBL −ve E. coli ATCC25922; read-out: MIC
[4] = test system: carbapenem sensitive Pseudomonas aeruginosa; assay: MIC by broth micro-dilution (CLSI), carbapenem sensitive P. aeruginosa; format: cell-based; conditions: Pseudomonas aeruginosa, ATCC27853, Meropenem susceptible P. aeruginosa ATCC27853; read-out: MIC

SMILES	MIC [1] [µg/mL]	MIC [2] [µg/mL]	MIC [3] [µg/mL]	MIC [4] [µg/mL]
C[C@@H](NC(=O)Cn1cnnn1)[C@H]1C(=O)N2C(C(=O)O)=C(S[C@@H]3CN[C@H](C(=O)N4C[C@@H](N)C[C@H]4CO)C3)[C@H](C)[C@H]12 [Example 412, (4R,5S,6R)-6-((R)-1-(2-(1H-tetrazol-1-yl)acetamido)ethyl)-3-((3S,5S)-5-((2S,4S)-4-amino-2-(hydroxymethyl)pyrrolidine-1-carbonyl)pyrrolidin-3-ylthio)-4-methyl-7-oxo-1-azabicyclo[3.2.0]hept-2-ene-2-carboxylic acid]	2 (≈ 3.55 µM)	2 (≈ 3.55 µM)	0.25 (≈ 0.444 µM)	1 (≈ 1.77 µM)
C[C@@H](NC(=O)Cn1cnnn1)[C@H]1C(=O)N2C(C(=O)O)=C(S[C@@H]3CN[C@H](C(=O)N4CC(N)C(N)C4)C3)[C@H](C)[C@H]12 (stereo partly drawn) [Example 413, (4R,5S,6R)-6-((R)-1-(2-(1H-tetrazol-1-yl)acetamido)ethyl)-3-((3S,5S)-5-(3,4-diaminopyrrolidine-1-carbonyl)pyrrolidin-3-ylthio)-4-methyl-7-oxo-1-azabicyclo[3.2.0]hept-2-ene-2-carboxylic acid]	2 (≈ 3.65 µM)	2 (≈ 3.65 µM)	0.25 (≈ 0.456 µM)	2 (≈ 3.65 µM)
C[C@@H](NC(=O)Cn1cnnn1)[C@H]1C(=O)N2C(C(=O)O)=C(S[C@@H]3CN[C@H](C(=O)N4C[C@H](N)[C@@H](O)C4)C3)[C@H](C)[C@H]12 [Example 414, (4R,5S,6R)-6-((R)-1-(2-(1H-tetrazol-1-yl)acetamido)ethyl)-3-((3S,5S)-5-((3S,4S)-3-amino-4-hydroxypyrrolidine-1-carbonyl)pyrrolidin-3-ylthio)-4-methyl-7-oxo-1-azabicyclo[3.2.0]hept-2-ene-2-carboxylic acid]	2 (≈ 3.64 µM)	4 (≈ 7.28 µM)	0.5 (≈ 0.91 µM)	4 (≈ 7.28 µM)
C[C@@H](NC(=O)Cn1cnnn1)[C@H]1C(=O)N2C(C(=O)O)=C(SCCN)[C@H](C)[C@H]12 [Example 415, (4R,5S,6R)-6-((R)-1-(2-(1H-tetrazol-1-yl)acetamido)ethyl)-3-(2-aminoethylthio)-4-methyl-7-oxo-1-azabicyclo[3.2.0]hept-2-ene-2-carboxylic acid]	1 (≈ 2.53 µM)	4 (≈ 10.1 µM)	2 (≈ 5.06 µM)	16 (≈ 40.5 µM)

Other lines, results leading:

MIC [1] [µg/mL]	MIC [2] [µg/mL]	MIC [3] [µg/mL]	MIC [4] [µg/mL]	SMILES
2 (≈ 3.46 µM)	4 (≈ 6.92 µM)	0.5 (≈ 0.866 µM)	8 (≈ 13.8 µM)	C[C@@H](NC(=O)Cn1cnnn1)[C@H]1C(=O)N2C(C(=O)O)=C(S[C@@H]3CN[C@H](C(=O)N4CCN(CCO)CC4)C3)[C@H](C)[C@H]12 [Example 416, (4R,5S,6R)-6-((R)-1-(2-(1H-tetrazol-1-yl)acetamido)ethyl)-3-((3S,5S)-5-(4-(2-hydroxyethyl)piperazine-1-carbonyl)pyrrolidin-3-ylthio)-4-methyl-7-oxo-1-azabicyclo[3.2.0]hept-2-ene-2-carboxylic acid]
2 (≈ 3.39 µM)	8 (≈ 13.5 µM)	0.5 (≈ 0.847 µM)	16 (≈ 27.1 µM)	C[C@@H](NC(=O)Cn1cnnn1)[C@H]1C(=O)N2C(C(=O)O)=C(S[C@@H]3CN[C@H](C(=O)N4CCN(CC(N)=O)CC4)C3)[C@H](C)[C@H]12 [Example 417, (4R,5S,6R)-6-((R)-1-(2-(1H-tetrazol-1-yl)acetamido)ethyl)-3-((3S,5S)-5-(4-(2-amino-2-oxoethyl)piperazine-1-carbonyl)pyrrolidin-3-ylthio)-4-methyl-7-oxo-1-azabicyclo[3.2.0]hept-2-ene-2-carboxylic acid]
4 (≈ 6.65 µM)	8 (≈ 13.3 µM)	1 (≈ 1.66 µM)	8 (≈ 13.3 µM)	C[C@@H](NC(=O)Cn1cnnn1)[C@H]1C(=O)N2C(C(=O)O)=C(S[C@@H]3CN[C@H](C(=O)N4CCC5(CCCCN5)CC4)C3)[C@H](C)[C@H]12 [Example 418, (4R,5S,6R)-3-((3S,5S)-5-(1,9-diazaspiro[5.5]undecane-9-carbonyl)pyrrolidin-3-ylthio)-6-((R)-1-(2-(1H-tetrazol-1-yl)acetamido)ethyl)-4-methyl-7-oxo-1-azabicyclo[3.2.0]hept-2-ene-2-carboxylic acid]
